Legend:
[1] = system: Phakopsora pachyrhizi (F129L); assay: Protective control of soybean rust on soybeans (PHAKPA P6); type: in vivo; details: for % PHAKPA (F129L) Disease level P6 at 4 ppm: protective P6, 4 ppm; for % PHAKPA (F129L) Disease level P6 at 16 ppm: protective P6, 16 ppm
[2] = system: Phakopsora pachyrhizi (F129L); assay: Protective control of soybean rust on soybeans (PHAKPA P2); type: in vivo; details: for % PHAKPA (F129L) Disease level P2 at 4 ppm: protective P2, 4 ppm; for % PHAKPA (F129L) Disease level P2 at 16 ppm: protective P2, 16 ppm

Structure (SMILES) | % PHAKPA (F129L) Disease level P6 at 4 ppm ([1]; F129L isolate) | % PHAKPA (F129L) Disease level P6 at 16 ppm ([1]; F129L isolate) | % PHAKPA (F129L) Disease level P2 at 4 ppm ([2]; F129L isolate) | % PHAKPA (F129L) Disease level P2 at 16 ppm ([2]; F129L isolate) | % PHAKPA (F129L) Disease level P6 at 4 ppm ([1]; soybean rust F129L isolate) | % PHAKPA (F129L) Disease level P6 at 16 ppm ([1]; soybean rust F129L isolate) | % PHAKPA (F129L) Disease level P2 at 4 ppm ([2]; soybean rust F129L isolate) | % PHAKPA (F129L) Disease level P2 at 16 ppm ([2]; soybean rust F129L isolate)
CO/C=C(/C(=O)OC)c1cccc(C)c1CO/N=C(\C)c1ccc(-c2ccccc2)cc1OC(F)(F)F [compound 433] | 80% | 57% | 83% | 67% | – | – | – | –
CNC(=O)/C(=N/OC)c1cccc(C)c1CO/N=C(\C)c1ccccc1C1CC1(F)F (centres unmarked) [compound 288] | – | – | – | – | 97% | 20% | 87% | 30%
CO/N=C(\C)COc1cccc(/C(C)=N/OCc2c(C)cccc2/C(=N\OC)C(=O)OC)c1 [compound 227] | – | – | – | – | 100% | 57% | 100% | 47%
C#Cc1cc(F)ccc1/C(C)=N/OCc1c(C)cccc1/C(=N\OC)C(=O)NC [compound 286] | – | – | – | – | 97% | 27% | 67% | 15%
CNC(=O)/C(=N/OC)c1cccc(C)c1CO/N=C(\C)c1cccc(OC/C(C)=N/OC)c1 [compound 226] | – | – | – | – | 57% | 7% | 28% | 3%
CNC(=O)/C(=N/OC)c1cccc(C)c1CO/N=C(\C)c1ccc(Br)cc1C(F)(F)F [compound 258] | – | – | – | – | 73% | 8% | 32% | 7%
CNC(=O)/C(=N/OC)c1cccc(C)c1CO/N=C(\C)c1c(F)ccc(F)c1OC(F)(F)F [compound 346] | – | – | – | – | 5% | 0% | 4% | 0%
CO/C=C(/C(=O)OC)c1cccc(C)c1CO/N=C(\C)c1ccc(OC)cc1C(F)(F)F [compound 464] | 8% | 0% | 1% | 0% | – | – | – | –
C#Cc1cccc(/C(C)=N/OCc2c(C)cccc2/C(=N\OC)C(=O)NC)c1F [compound 401] | 32% | 4% | 17% | 5% | – | – | – | –
CO/C=C(/C(=O)OC)c1cccc(C)c1CO/N=C(\C)c1ccccc1CC(F)(F)F [compound 437] | 8% | 0% | 2% | 0% | – | – | – | –
CNC(=O)/C(=N/OC)c1cccc(C)c1CO/N=C(\C)c1c(F)cc(Br)cc1OC(F)(F)F [compound 355] | – | – | – | – | 48% | 4% | 34% | 7%
CNC(=O)/C(=N/OC)c1cccc(C)c1CO/N=C(\C)c1cc(C)ccc1C [compound 278] | – | – | – | – | 90% | 93% | 90% | 60%
CNC(=O)/C(=N/OC)c1cccc(C)c1CO/N=C(\C)c1ccc(Oc2ccc(Cl)cc2)cc1C(F)(F)F [compound 336] | – | – | – | – | 50% | 17% | 63% | 20%
C#Cc1cc(F)c(F)c(/C(C)=N/OCc2c(C)cccc2/C(=N\OC)C(=O)OC)c1 [compound 242] | – | – | – | – | 87% | 20% | 87% | 10%
CNC(=O)/C(=N/OC)c1cccc(C)c1CO/N=C(\C)c1ccc(C)c(C(F)(F)F)c1 [compound 230] | – | – | – | – | 73% | 4% | 22% | 1%
CNC(=O)/C(=N/OC)c1cccc(C)c1CO/N=C(\C)c1ccc(C#N)cc1C(F)(F)F [compound 424] | 97% | 50% | 100% | 27% | – | – | – | –
CO/N=C(/C(=O)OC)c1cccc(C)c1CO/N=C(\C)c1ccc(OC)cc1OC(F)(F)F [compound 373] | – | – | – | – | 100% | 38% | 77% | 27%
CNC(=O)/C(=N/OC)c1cccc(C)c1CO/N=C(\C)c1ccc(Cc2ccccc2)cc1C(F)(F)F [compound 407] | 17% | 4% | 12% | 6% | – | – | – | –
CO/N=C(/C)c1ccc(/C(C)=N/OCc2c(C)cccc2/C(=N\OC)C(=O)OC)c(C(F)(F)F)c1 [compound 417] | 63% | 22% | 35% | 18% | – | – | – | –
CNC(=O)/C(=N/OC)c1cccc(C)c1CO/N=C(\C)c1cc(F)c(F)cc1CC(F)(F)F [compound 406] | 67% | 23% | 97% | 30% | – | – | – | –
CNC(=O)/C(=N/OC)c1cccc(C)c1CO/N=C(\C)c1cccc(C(C)(F)F)c1 [compound 303] | – | – | – | – | 12% | 0% | 2% | 0%
CO/N=C(/C(=O)OC)c1cccc(C)c1CO/N=C(\C)c1ccc(-c2ccc(F)cc2)cc1C(F)(F)F [compound 425] | 53% | 40% | 27% | 28% | – | – | – | –
CO/N=C(/C(=O)OC)c1cccc(C)c1CO/N=C(\C)c1ccccc1C(C)C [compound 218] | – | – | – | – | 100% | 100% | 100% | 87%
CNC(=O)/C(=N/OC)c1cccc(C)c1CO/N=C(\C)c1ccc(OC)cc1OC(F)(F)F [compound 337] | – | – | – | – | 13% | 1% | 9% | 0%
CNC(=O)/C(=N/OC)c1cccc(C)c1CO/N=C(\C)c1ccccc1C1CC1 [compound 219] | – | – | – | – | 87% | 43% | 60% | 8%
C=Cc1cccc(/C(=N\OC)C(=O)NC)c1CO/N=C(\C)c1ccccc1 [compound 400] | 8% | 0% | 2% | 0% | – | – | – | –
CNC(=O)/C(=N/OC)c1cccc(C)c1CO/N=C(\C)c1ccc(Cl)c(F)c1CC(F)(F)F [compound 412] | 40% | 6% | 47% | 6% | – | – | – | –
CNC(=O)/C(=N/OC)c1cccc(C)c1CO/N=C(\C)c1ccc(Cl)c(F)c1OC(F)(F)F [compound 449] | 57% | 9% | 33% | 10% | – | – | – | –
CNC(=O)/C(=N/OC)c1cccc(C)c1CO/N=C(\C)c1c(F)cccc1Cl [compound 284] | – | – | – | – | 62% | 34% | 63% | 44%

— US20230172206A1 (BASF SE, priority 2020, published 2023)
